Molecules are shown by their SMILES. Where only a bound is given, the exact number is not on record here.

Chain of FKBP12 (P62942 whole entry, species assumed): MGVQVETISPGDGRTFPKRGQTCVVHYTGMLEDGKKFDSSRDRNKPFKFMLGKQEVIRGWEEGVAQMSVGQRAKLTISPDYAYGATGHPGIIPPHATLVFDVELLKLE

In this experiment the target is FKBP12 (Homo sapiens, UniProt P62942). Put plainly: FKBP12 binding assay (inhibition of rotomase activity). The experiment is classed as biochemical. The settings on record: apparent Ki. The text has this:
Preferably, the assay measures inhibition of FKBP12 rotomase activity. Such an assay has also been described by M. W. Harding et al., supra and by J. J. Siekierka et al., supra. In this assay the isomerization of an artificial substrate--N-succinyl-Ala-Ala-Pro-Phe-p-nitroanilide--is followed spectrophotometrically. The assay includes the cis form of the substrate, FKBP12, the inhibitor and chymotrypsin. Chymotrypsin is able to cleave p-nitroanilide from the trans form of the substrate, but not the cis form. Release of p-nitroanilide is measured.
The inhibition of FKBP rotomase activity by the preferred FKBP12 binding compounds present in the compositions of this invention was assayed. In this assay various quantities of FKBP12 binding compound (0nM-10 μM) were added to cis-N-succinyl-Ala-Ala-Pro-Phe-p-nitroanilide in the presence of FKBP12 and chymotrypsin. FKBP12 converts the cis form of the substrate to the trans form. This allows chymotrypsin to cleave p-nitroanilide from the substrate. Release of p-nitroanilide was measured spectrophotometrically. This assay allowed me to measure the change in the first order rate constant of the rotomase activity as a function of FKBP12 binding compound concentration and yielded an estimate of apparent Ki.
Take `CCOCc1cccc(COCC)c1-c1cncc([C@@H](CCN2CCOCC2)OC(=O)[C@@H]2CCCCN2C(=O)C(=O)CC(C)C)c1` [Compound 73]: the Ki amounted to 718 nM.
Next, `CCCC/C=C(\c1cncc([C@@H](OC(=O)[C@@H]2CCCCN2C(=O)C(=O)C(C)C)/C(C)=C/C2CCN(C)CC2)c1)C1CCCCC1` [Compound 74]: 500 nM; `CCCC/C=C(\c1cncc([C@H](OC(=O)[C@@H]2CCCCN2C(=O)C(=O)C(C)C)/C(C)=C/C2CCN(C)CC2)c1)C1CCCCC1` [Compound 75]: 188 nM.
As to `CCOCc1cccc(COCC)c1-c1cncc([C@H](CCN2CCOCC2)OC(=O)[C@@H]2CCCCN2C(=O)C(=O)CC(C)C)c1` [Compound 77], the Ki came out at 2100 nM.
As to `CCOCc1cccc(COCC)c1-c1cncc([C@@H](CCN2CCOCC2)OC(=O)[C@@H]2CCCCN2C(=O)C(=O)C2(C)CCCCC2)c1` [Compound 78], the Ki was 77 nM.
Next, `CCOCc1cccc(COCC)c1-c1cncc([C@H](CCN2CCOCC2)OC(=O)[C@@H]2CCCCN2C(=O)C(=O)C2(C)CCCCC2)c1` [Compound 80]: 230 nM; `CCOCc1cccc(COCC)c1-c1cncc([C@@H](CCN2CCOCC2)OC(=O)[C@@H]2CCCCN2C(=O)C(=O)C(C)(C)C)c1` [Compound 81]: 189 nM.
Next, `CCOCc1cccc(COCC)c1-c1ccc([C@@H](CCN2CCOCC2)OC(=O)[C@@H]2CCCCN2C(=O)C(=O)CC(C)C)s1` [Compound 83]: 315 nM; `CCOCc1cccc(COCC)c1-c1ccc([C@H](CCN2CCOCC2)OC(=O)[C@@H]2CCCCN2C(=O)C(=O)CC(C)C)s1` [Compound 84]: 2000 nM.
For `C=CCC/C=C(/c1cccnc1)c1ccc([C@@H](CCN2CCOCC2)OC(=O)[C@@H]2CCCCN2C(=O)C(=O)C2(C)CCCCC2)s1` [Compound 85], the Ki was 1 nM.
As to `CCOCc1cc2ccccc2n1-c1cccc([C@@H](CCN2CCOCC2)OC(=O)[C@@H]2CCCCN2C(=O)C(=O)C2(C)CCCCC2)c1` [Compound 86], the Ki was 14 nM.
For `C=CCC/C=C(\c1ccc([C@H](CCN2CCOCC2)OC(=O)[C@@H]2CCCCN2C(=O)C(=O)C2(C)CCCCC2)s1)C1CCOCC1` [Compound 87], the Ki worked out at 2.3 nM.
With `CCOc1ccc(OCC)c(-c2cncc([C@H](CCCc3ccccc3)OC(=O)[C@@H]3CCCCN3C(=O)C(=O)c3cc(OC)c(OC)c(OC)c3)c2)c1` [Compound 88] the figure was 64 nM; with `CCC/C=C(/c1cccnc1)c1cccc(C(CCN2CCOCC2)OC(=O)[C@@H]2CCCCN2C(=O)C(=O)C(C)(C)C(C)C)c1` (some centres unmarked) [Compound 92], 32 nM.
Next, `CCOCc1cccc(COCC)c1-c1ccc([C@@H](CCN2CCOCC2)OC(=O)[C@@H]2CCCCN2C(=O)C(=O)C(C)(C)C(C)C)s1` [Compound 93]: 44 nM.
With `CCOCc1cc2ccccc2n1-c1cccc([C@@H](CCN2CCOCC2)OC(=O)[C@@H]2CCCCN2C(=O)C(=O)C(C)(C)C(C)C)c1` [Compound 94] the figure was 16 nM.
Consider `C=CCC/C=C(\c1ccc([C@@H](CCN2CCOCC2)OC(=O)[C@@H]2CCCCN2C(=O)C(=O)C2(O)CCCCC2)s1)C1CCOCC1` [Compound 95], for which the Ki is 14 nM.
For `C=CCC/C=C(/c1cccnc1)c1ccc([C@@H](CCN2CCOCC2)OC(=O)[C@@H]2CCCCN2C(=O)C(=O)C2(C)CCCCC2)s1` [Compound 96], the Ki amounted to 28 nM.
With `CCC/C=C(\c1cncc([C@H](OC(=O)[C@@H]2CCCCN2C(=O)C(=O)C(C)(C)C(C)C)/C(C)=C/c2ccncc2)c1)C1CCCCC1` [Compound 98] the figure was 62 nM; with `C=CCC/C=C(/c1cccnc1)c1ccc([C@H](CCN2CCOCC2)OC(=O)[C@@H]2CCCCN2C(=O)C(=O)c2cc(COC)ccc2C)s1` [Compound 101], 500 nM; with `CCOCc1cccc(COCC)c1-c1ccc([C@@H](CCN2CCOCC2)OC(=O)[C@@H]2CCCCN2C(=O)C(=O)c2cc(COC)ccc2C)s1` [Compound 102], 700 nM.
Next, `CCCc1ccc(CCC)n1-c1cccc([C@@H](CCN2CCOCC2)OC(=O)[C@@H]2CCCCN2C(=O)C(=O)C(C)(C)C(C)C)c1` [Compound 103]: 21 nM; `CCCc1ccc(CCC)n1-c1cccc([C@H](CCN2CCOCC2)OC(=O)[C@@H]2CCCCN2C(=O)C(=O)C(C)(C)C(C)C)c1` [Compound 104]: 870 nM; `CCCc1ccc(CCC)n1-c1cccc([C@H](OC(=O)[C@@H]2CCCCN2C(=O)C(=O)C(C)(C)C(C)C)/C(C)=C/c2ccncc2)c1` [Compound 106]: 2100 nM.
With `CCCc1ccc(CCC)n1-c1cccc(C(OC(=O)[C@@H]2CCCCN2C(=O)C(=O)[C@@H]2CCCC[C@H]2C)/C(C)=C/c2ccncc2)c1` (some centres unmarked) [Compound 108] the figure was 5100 nM; with `CCCc1ccc(CCC)n1-c1cccc(C(OC(=O)[C@@H]2CCCCN2C(=O)C(=O)C(C)(C)C(C)C)/C(C)=C/c2ccncc2)c1` (some centres unmarked) [Compound 109], greater than 10000 nM.
Consider `CCC/C(=C/COC)c1cncc([C@H](CCN2CCOCC2)OC(=O)[C@@H]2CCCCN2C(=O)C(=O)C(C)(C)C(C)C)c1` [Compound 114], for which the Ki stood at 172 nM.
In the case of `COC/C=C(\c1cncc([C@@H](CCN2CCOCC2)OC(=O)[C@@H]2CCCCN2C(=O)C(=O)C(C)(C)C(C)C)c1)C(C)C` [Compound 115], the Ki came to 44 nM.
Next, `COC/C=C(\c1cncc([C@H](CCN2CCOCC2)OC(=O)[C@@H]2CCCCN2C(=O)C(=O)C(C)(C)C(C)C)c1)C(C)C` [Compound 116]: 130 nM.
In the case of `CCC/C(=C/COC)c1cncc([C@@H](CCN2CCOCC2)OC(=O)[C@@H]2CCCCN2C(=O)C(=O)[C@@H]2CCCC[C@H]2C)c1` [Compound 117], the Ki came to 150 nM.
In the case of `COC/C=C(\c1cncc([C@@H](CCN2CCOCC2)OC(=O)[C@@H]2CCCCN2C(=O)C(=O)[C@@H]2CCCC[C@H]2C)c1)C(C)C` [Compound 118], the Ki is 70 nM.
Next, `CCCCc1ccc(C)n1-c1cccc([C@@H](CCN2CCOCC2)OC(=O)[C@@H]2CCCCN2C(=O)C(=O)[C@@H]2CCCC[C@H]2C)c1` [Compound 120]: 80 nM.
Next, `CCCCc1ccc(C)n1-c1cccc([C@@H](CCN2CCOCC2)OC(=O)[C@@H]2CCCCN2C(=O)C(=O)[C@@H]2C[C@H](OCC)CC[C@H]2C)c1` [Compound 121]: 85 nM; `CCCCc1ccc(C)n1-c1cccc([C@@H](CCN2CCOCC2)OC(=O)[C@@H]2CCCCN2C(=O)C(=O)C(C)(C)C(C)C)c1` [Compound 122]: 32 nM; `COC/C=C(\c1cncc([C@@H](CCN2CCOCC2)OC(=O)[C@@H]2CCCCN2C(=O)C(=O)[C@@H]2C[C@H](C(C)(C)OC)CC[C@H]2C)c1)C(C)C` [Compound 124]: 1000 nM.
With `CCC/C(=C/COC)c1cncc(C(CCN2CCOCC2)OC(=O)[C@@H]2CCCCN2C(=O)C(=O)[C@@H]2C[C@H](OCC)CC[C@H]2C)c1` (some centres unmarked) [Compound 125] the figure was 1100 nM; with `CCCCc1ccc(C)n1-c1cccc([C@@H](CCN2CCOCC2)OC(=O)[C@@H]2CCCCN2C(=O)C(=O)[C@@H]2C[C@H](C(C)C)CC[C@H]2C)c1` [Compound 126], 3000 nM.
With `CCO[C@@H]1CC[C@@H](C)[C@H](C(=O)C(=O)N2CCCC[C@H]2C(=O)O[C@H](CCN2CCOCC2)c2cccc(-n3c(C)ccc3C)c2)C1` [Compound 127], the Ki worked out at 19 nM.
Next, `CCC/C=C(\c1cncc([C@@H](CCN2CCOCC2)OC(=O)[C@@H]2CCCCN2C(=O)C(=O)[C@@H]2CCCC[C@H]2C)c1)C(C)C` [Compound 128]: 41 nM; `CCC/C=C(\c1cncc([C@@H](CCN2CCOCC2)OC(=O)[C@@H]2CCCCN2C(=O)C(=O)[C@@H]2C[C@H](C(C)(C)OC)CC[C@H]2C)c1)C(C)C` [Compound 129]: 1200 nM.
With `CCC/C=C(\c1cncc([C@@H](CCN2CCOCC2)OC(=O)[C@@H]2CCCCN2C(=O)C(=O)[C@@H]2C[C@H](OCC)CC[C@H]2C)c1)C(C)C` [Compound 130] the figure was 490 nM; with `CCC/C(=C/COC)c1cncc(C(OC(=O)[C@@H]2CCCCN2C(=O)C(=O)[C@@H]2CCCC[C@H]2C)/C(C)=C/C2CCOCC2)c1` (some centres unmarked) [Compound 131], 90 nM; with `CCC/C=C(\c1cncc([C@@H](CCN2CCOCC2)OC(=O)[C@@H]2CCCCN2C(=O)C(=O)[C@@H]2C[C@@H](OCC)CN2C(C)=O)c1)C(C)C` [Compound 132], greater than 10000 nM.
Next, `CCC/C=C(/C)c1cncc([C@@H](CCN2CCOCC2)OC(=O)[C@@H]2CCCCN2C(=O)C(=O)[C@@H]2C[C@H](C(C)(C)OC)CC[C@H]2C)c1` [Compound 133]: 315 nM.
